Experimental data taken from US6617350B2, “Inhibitors of aspartyl protease” (priority 1999, dated 2003).

Each compound was assayed on HIV-1 (strain IIIB) (assay: microbe, parasite or virus in culture). Settings: Human immunodeficiency virus 1, IIIB, MT4, MT-4 cells; comparison compound; read-out: IC50 in the MT-4 cell based assay.
Format: cell-based
CC(C)CN(CC(O)C(Cc1ccccc1)NC(=O)OC1CCOC1)S(=O)(=O)c1ccc(N)cc1 [Compound A, 4-amino-N-((2 syn, 3S)-2-hydroxy-4-phenyl-3-((S)-tetrahydrofuran-3-yloxycarbonylamino)-butyl)-N-isobutyl-benzenesulfonamide, reference compound] was tested, and the IC50 was 80 nM.

Same assay, conditions: Human immunodeficiency virus 1, IIIB, MT4, Table 13; MT-4 cell based assay; class symbol; read-out: IC50
CC(C)(CCNC(=O)c1ccco1)CN(C[C@@H](O)[C@H](Cc1ccccc1)NC(=O)O[C@H]1CO[C@H]2OCC[C@H]21)S(=O)(=O)c1ccc2c(c1)OCO2 [Compound 378] showed an IC50 of 1 to 10 nM.
For CC(C)(CCNC(=O)C1CCC1)CN(C[C@@H](O)[C@H](Cc1ccccc1)NC(=O)O[C@H]1CO[C@H]2OCC[C@H]21)S(=O)(=O)c1ccc2c(c1)OCO2 [Compound 375], the IC50 was 1 to 10 nM.
With CC(C)CC(=O)NCCC(C)(C)CN(C[C@@H](O)[C@H](Cc1ccccc1)NC(=O)O[C@H]1CO[C@H]2OCC[C@H]21)S(=O)(=O)c1ccc2c(c1)OCO2 [Compound 376] the IC50 was 1 to 10 nM.
CC(C)(CCNC(=O)C(C)(C)C)CN(C[C@@H](O)[C@H](Cc1ccccc1)NC(=O)O[C@H]1CO[C@H]2OCC[C@H]21)S(=O)(=O)c1ccc2c(c1)OCO2 [Compound 374] was tested, and the IC50 was 1 to 10 nM.
Compound CC(C)(CCNC(=O)c1cccs1)CN(C[C@@H](O)[C@H](Cc1ccccc1)NC(=O)O[C@H]1CO[C@H]2OCC[C@H]21)S(=O)(=O)c1ccc2c(c1)OCO2 [Compound 379] has an IC50 of 1 to 10 nM.
CC(C)(CCNC(=O)c1ccccc1)CN(C[C@@H](O)[C@H](Cc1ccccc1)NC(=O)O[C@H]1CO[C@H]2OCC[C@H]21)S(=O)(=O)c1ccc2c(c1)OCO2 [Compound 377] was tested, and the IC50 was 1 to 10 nM.

Same assay, conditions: Human immunodeficiency virus 1, IIIB, MT4, Table 13; MT-4 cell based assay; numeric value, comparison compound; read-out: IC50
In the case of CC(C)CN(CC(O)C(Cc1ccccc1)NC(=O)OC1CCOC1)S(=O)(=O)c1ccc(N)cc1 [Compound A, 4-amino-N-((2 syn, 3S)-2-hydroxy-4-phenyl-3-((S)-tetrahydrofuran-3-yloxycarbonylamino)-butyl)-N-isobutyl-benzenesulfonamide, reference compound], the IC50 is reported as 80 nM.

Same assay, conditions: Human immunodeficiency virus 1, IIIB, MT4, antiviral assay, MT4 cells infected with HIV-1 (strain IIIB); class symbol; read-out: IC50 (activity range)
CC(C)(CCCCN)CN(C[C@@H](O)[C@H](Cc1ccccc1)NC(=O)O[C@H]1CCOC1)S(=O)(=O)c1ccc2c(c1)OCO2 [Compound 295, (3S)-tetrahydro-3-furanyl N-(1S,2R)-3-[(1,3-benzodioxol-5-ylsulfonyl)(6-amino-2,2-dimethylhexyl)amino]-1-benzyl-2-hydroxypropylcarbamate] was tested, and the IC50 was 100 to 500 nM.
In the case of CC(=O)NCC(=O)NCCC(C)(C)CN(CC(O)C(Cc1ccccc1)NC(=O)OC1COC2OCCC12)S(=O)(=O)c1ccc2c(c1)OCO2 (stereo not drawn) [Compound 523], the IC50 is reported as 100 to 500 nM.
In the case of CC(C)(CCCCNC(=O)CNS(C)(=O)=O)CN(CC(O)C(Cc1ccccc1)NC(=O)OC1COC2OCCC12)S(=O)(=O)c1ccc2c(c1)OCO2 (stereo not drawn) [Compound 542], the IC50 is reported as 100 to 500 nM.
In the case of CC(C)(CCCCN)CN(CC(O)[C@H](Cc1ccccc1)NC(=O)OC1COCOC1)S(=O)(=O)c1ccc2c(c1)OCO2 (stereo partly drawn) [Compound 297, [1,3]-dioxan-5-yl N-(1S,2R)-3-[(1,3-benzodioxol-5-ylsulfonyl)(6-amino-2,2-dimethylhexyl)amino]-1-benzyl-2-hydroxypropylcarbamate], the IC50 is reported as 100 to 500 nM.
In the case of CC(C)(CCNC(=O)CNS(C)(=O)=O)CN(CC(O)C(Cc1ccccc1)NC(=O)OC1COC2OCCC12)S(=O)(=O)c1ccc2c(c1)OCO2 (stereo not drawn) [Compound 528], the IC50 is reported as 100 to 500 nM.
With CC(C)(CCNC(=O)CCC1CCCC1)CN(C[C@@H](O)[C@H](Cc1ccccc1)NC(=O)O[C@H]1CO[C@H]2OCC[C@H]21)S(=O)(=O)c1ccc2c(c1)OCO2 [Compound 402] the IC50 was 100 to 500 nM.
CC(C)(CCCCN)CN(CC(O)[C@H](Cc1ccccc1)NC(=O)OC1CCOC1)S(=O)(=O)c1ccc(N)cc1 (stereo partly drawn) [Compound 296, (3S)-tetrahydro-3-furanyl N-(1S,2R)-3-[(4-aminophenylsulfonyl)(6-amino-2,2-dimethylhexyl)amino]-1-benzyl-2-hydroxypropylcarbamate] gave an IC50 of 100 to 500 nM.
Compound CN(C)C(=O)NCC(=O)NCCCCC(C)(C)CN(CC(O)C(Cc1ccccc1)NC(=O)OC1COC2OCCC12)S(=O)(=O)c1ccc2c(c1)OCO2 (stereo not drawn) [Compound 540] has an IC50 of 100 to 500 nM.
Compound CN(C)C(=NC#N)NCCC(C)(C)CN(CC(O)C(Cc1ccccc1)NC(=O)OC1COC2OCCC12)S(=O)(=O)c1ccc2c(c1)OCO2 (stereo not drawn) [Compound 563] has an IC50 of 100 to 500 nM.
Work on CC(C)(CCOC(=O)NO)CN(CC(O)C(Cc1ccccc1)NC(=O)OC1COC2OCCC12)S(=O)(=O)c1ccc2c(c1)OCO2 (stereo not drawn) [Compound 605] yielded an IC50 of 100 to 500 nM.
